Test results published in patent US6534063B1, “Methods for treating pervasive development disorders” (priority 1999, dated 2003).
No end group written: not given here.

Legend:
[1] = test system: children diagnosed with Autism; details: secretin given as diagnostic procedure during upper gastrointestinal endoscopy; cited from earlier work
fecal chymotrypsin level = test: Fecal Chymotrypsin Test after secretin infusion, 16 autistic children (Experiment 1); format: in vivo; details: each of 16 autistic children; approximately one week after first secretin infusion, 1 U/kg IV; compared with pre-secretin levels
Protocol: (§1) In this experiment, 16 children diagnosed as having autism were administered the following Fecal Chymotrypsin Test in accordance with an embodiment of the invention. First, approximately 2 grams of stool were collected from each child and placed in a sterile container (although it is to be understood that any quantity of stool may be collected, as 2 grams of stool is not a required amount). Each stool sample was then analyzed using, e.g., an enzymatic photospectrometry analysis as is known by those skilled in the art, to determine the level of fecal chymotrypsin in the stool. Although the enzymatic photospectrophotometry process is preferred, any suitable conventional method may be used for measuring the fecal chymotrypsin levels. The measured chymotrypsin levels of the 16 autistic children are illustrated in FIG. 13.
After determining the chymotrypsin levels of the stools, each of these levels were compared with threshold chymotrypsin levels to determine if the child was likely to benefit from secretin administration. By way of example, with the fecal chymotrypsin tests of the stool samples being performed at 30° C., normal levels of chymotrypsin are deemed to lie above 8.4 U/gram, whereas pathologically abnormal levels are deemed to lie below 4.2 U/gram. […]

[2] = test system: fecal chymotrypsin (FC) levels; test: Weekly fecal chymotrypsin test during 6 months of secretin, 37 autistic children (Experiment 2); format: in vivo; details: 6 months post-secretin administration; of 37 children, all abnormal pre-secretin
Protocol: as §1
After determining the chymotrypsin levels of the stools, each of these levels were compared with threshold chymotrypsin levels to determine if the child was likely to benefit from secretin administration. By way of example, with the fecal chymotrypsin tests of the stool samples being performed at 30° C., normal levels of chymotrypsin are deemed to lie above 8.4 U/gram, whereas pathologically abnormal levels are deemed to lie below 4.2 U/gram. In addition, chymotrypsin levels between 8.4 U/gram and 4.2 U/gram are considered equivocal, and further testing of the individual's fecal chymotrypsin levels over a period of time should be performed.
A preferred secretin infusion process includes the initial step of prepping an arm of the candidate child with an IV injection of saline. A test dose of 1 U of Secretin-Ferring is then administered to the child. […]
In this experiment, 37 autistic children with abnormal fecal chymotrypsin levels were administered secretin over the course of 6 months using the secretin infusion process described above. Their fecal chymotrypsin (FC) levels were measured weekly using the fecal chymotrypsin test described above.

[3] = test system: children diagnosed as having autism; test: CARS (Childhood Autism Rating Scale) test pre- and post-secretin (Experiment 1); format: in vivo; details: 16 autistic children
Protocol: Upon determining that a given child was likely to benefit from secretin administration based on the results of the fecal chymotrypsin test, the child was administered a CARS (Childhood Autism Rating Scale) test prior to being scheduled for secretin infusion.
For each of the 16 autistic children tested, a preferred secretin infusion process according to the present invention was performed involving the administering of 1 U/kg of body weight of Secretin-Ferring for a period of nine months at intervals of approximately 6 weeks. In addition, another CARS test was administered to each of the 16 autistic children 3 weeks post secretin administration to determine if their autism had changed post infusion.
A preferred secretin infusion process includes the initial step of prepping an arm of the candidate child with an IV injection of saline. A test dose of 1 U of Secretin-Ferring is then administered to the child. Approximately one minute after infusion, the child is examined for signs of allergic reaction including rash, increased heart rate, and increase of blood pressure. […] Subsequently, each child receives a 1 U/kg of body weight infusion of Secretin-Ferring approximately every 6 weeks for 9 months. It is to be understood that any commercially available form of secretin may be used.

In the case of “secretin (HSDGTFTSELSRLRDSARLQRLLQGLV-NH2; ends and bridges not checked; UniProt P63298 33-59, looked up) [gastrointestinal peptide hormone]”, the “symptoms associated with Autism” value [1] is given as “ameliorating the symptoms associated with Autism”, the “fecal chymotrypsin level post-secretin administration” value (fecal chymotrypsin level) is given as “increased” and the “# Autistic Children w/Abnormal FC levels” value [2] is given as 1. The “# Autistic Children w/Equivocal FC levels” value [2] was 2, the “# Autistic Children w/normal FC levels” value [2] was 34 and the “CARS component scores (all except fear)” value ([3]; 3 weeks post infusion) was “demonstrated improvement”. The “CARS fear component score” value ([3]; 3 weeks post infusion) was “increased” and the “CARS scores (overall)” value ([3]; approximately 3 weeks after first secretin administration vs pre-secretin) was “overall decrease”.
